Data as given in ChEMBL document CHEMBL1782049, “The synthesis and evaluation of a novel class of (E)-3-(1-cyclohexyl-1H-pyrazol-3-yl)-2-methylacrylic acid hepatitis C virus polymerase NS5B inhibitors” (Bioorg Med Chem Lett, 2011).

Legend:
Hepatitis C virus [1] = test: Inhibition of Hepatitis C virus subtype 1b NS5B activity assessed as inhibition of poly(A)n.oligo(dT)12-18-directed incorporation of [3H]-UTP into […] after 45 mins
Hepatitis C virus [2] = test: Antiviral activity against Hepatitis C virus subtype 1b infected in human Huh7 cells by replicon assay; format: functional, organism-based, Hepacivirus hominis; conditions: genotype 1b, Huh-7
Hepatitis C virus [3] = test: Antiviral activity against Hepatitis C virus subtype 1b harboring NS5B P495A mutant infected in human Huh7 cells by replicon assay; format: functional, organism-based, Hepacivirus hominis; conditions: genotype 1b, Huh-7
[4] = Therapeutic index, ratio of CC50 for human HuH cells to EC50 for Hepatitis C virus subtype 1b; format: cell-based; conditions: read-out: Ratio CC50/EC50

SMILES	IC50 (Hepatitis C virus [1]) [µM]	EC50 (Hepatitis C virus [2]) [µM]	EC50 (Hepatitis C virus [3]) [µM]	selectivity ratio [4]
CNC(=O)c1ccc(-c2ccc(Cl)cc2)c(COc2ccc(-c3nc(/C=C(\C)C(=O)O)cn3C3CCCCC3)cc2)c1	1.62			
CNC(=O)c1ccc(-c2ccc(Cl)cc2)c(COc2ccc(-n3nc(/C=C(\C)C(=O)O)cc3C3CCCCC3)cc2)c1	4.03			
C/C(=C\c1cc(-c2ccc(OCc3cc(C(=O)NCCO)ccc3-c3ccc(Cl)cc3)cc2)n(C2CCCCC2)n1)C(=O)O	1.03			
C/C(=C\c1cc(-c2ccc(OCc3cc(C(=O)N(C)C)ccc3-c3ccc(C#N)cc3)cc2)n(C2CCCCC2)n1)C(=O)O	0.82			
C/C(=C\c1cc(-c2ccc(OCc3cc(C(=O)N4CCC(O)CC4)ccc3-c3ccc(C#N)cc3)cc2)n(C2CCCCC2)n1)C(=O)O	0.34	0.4	4	> 60
CNC(=O)c1ccc(-c2ccc(C(C)=O)s2)c(COc2ccc(-c3cc(/C=C(\C)C(=O)O)nn3C3CCCCC3)cc2)c1	2.29			
CC(=O)c1ccc(-c2ccc(C(=O)N(C)C)cc2COc2ccc(-c3cc(/C=C(\C)C(=O)O)nn3C3CCCCC3)cc2)s1	2.7			
CC(=O)c1ccc(-c2ccc(C(=O)N3CCOCC3)cc2COc2ccc(-c3cc(/C=C(\C)C(=O)O)nn3C3CCCCC3)cc2)s1	5.2			

Second part, led by results:

IC50 (Hepatitis C virus [1]) [µM]	EC50 (Hepatitis C virus [2]) [µM]	SMILES	EC50 (Hepatitis C virus [3]) [µM]	selectivity ratio [4]
0.79		CNC(=O)c1ccc(-c2ccc(C#N)cc2)c(COc2ccc(-c3cc(/C=C(\C)C(=O)O)nn3C3CCCCC3)cc2)c1		
0.38		CNC(=O)c1ccc(-c2ccc(Cl)cc2)c(COc2ccc(-c3cc(/C=C(\C)C(=O)O)nn3C3CCCCC3)cc2)c1		
0.46	1.9	C/C(=C\c1cc(-c2ccc(OCc3cc(C(=O)N(C)C)ccc3-c3ccc(Cl)cc3)cc2)n(C2CCCCC2)n1)C(=O)O		
0.44		C/C(=C\c1cc(-c2ccc(OCc3cc(C(=O)N4CCC(O)CC4)ccc3-c3ccc(Cl)cc3)cc2)n(C2CCCCC2)n1)C(=O)O		
0.65	0.7	C/C(=C\c1nn(C2CCCCC2)c(-c2ccc(OCc3cc(C(=O)N4CCC(O)CC4)ccc3-c3ccc(Cl)cc3)cc2)c1Br)C(=O)O		
0.64	0.3	CNC(=O)c1ccc(-c2ccc(Cl)cc2)c(COc2ccc(-c3nc4cc(C(=O)O)ccc4n3C3CCCCC3)cc2)c1		
